The values that follow are results of earlier work, collected in patent US20130236944A1, “METHODS FOR THE INACTIVATION OF ANTIBIOTICS” (priority 2011, published 2013).

Each structure is given as a SMILES string.

For the data set the following is noted: after 180 days; Hektoen et al. (1995).

For the molecule `CCn1cc(C(=O)O)c(=O)c2cc3c(cc21)OCO3` [oxolanic acid], the “degradation in marine sediments” value was “no degradation”.

For the molecule `CN(C)[C@@H]1C(O)=C(C(N)=O)C(=O)[C@@]2(O)C(O)=C3C(=O)c4c(O)cccc4[C@@](C)(O)[C@H]3[C@H](O)[C@@H]12` [oxytetracycline], the “degradation in marine sediments” value was “no degradation”.
